Data published in patent US9408385B2, “Pesticidal composition comprising a pyridylethylbenzamide derivative and an insecticide compound” (priority 2006, dated 2016).
“And” between values parts separate entries of the source, which are not always exact repeats. Identical values can stand only once. Like-named read-outs stand apart in the source and are kept apart here.

How the values were obtained:
[1] = system: Phaedon cochleariae larvae; assay: Efficacy against Phaedon cochleariae larvae, cabbage leaf dip test; settings: for mortality at 1 ppm: read-out: Mortality in % after 4d, dose 1 ppm
Myzus persicae = assay: Efficacy against Myzus persicae, cabbage leaf dip test; format: in vivo; settings: foliar
Excerpt: (§1) Solvent: 7 parts by weight of dimethylformamide

Gibberella zeae = format: cell-based; settings: dose 3 ppm; 4 days of incubation, optical density
Phytophthora cryptogea = assay: Efficacy against Phytophthora cryptogea (Test in vitro - Microtest); settings: dose 0.03 ppm; 4 days of incubation, optical density
Experimental: The microtest was performed in liquid medium with potato-dextrose broth (PDB) using microtitre plates.
A mycelium suspension of Phytophthora cryptogea was used for inoculation. After 4 days of incubation by darkness under shaking (10 Hrz), the optical density in each cavity was evaluated with the aid of a microtitre plate reader.

Aphis gossypii = assay: Efficacy against Aphis gossypii, cotton leaf dip test; format: in vivo; settings: foliar, 24 h, after 1 d
Excerpt: as §1

Pyricularia oryzae = format: cell-based; settings: dose 0.015 ppm; 3 days of incubation
[2] = Phaedon cochleariae, in Brassica oleracea, foliar, 96 h, read-out: Mortality in % after 4d, dose 4 ppm, after 4 d
[3] = Phaedon cochleariae, in Brassica oleracea, foliar, 144 h, read-out: Mortality in % after 6d, dose 4 ppm, after 6 d
[4] = 24 h, after 1 d, read-out: Mortality in % after 1d
[5] = 144 h, after 6 d, read-out: Mortality in % after 6d
[6] = Phaedon cochleariae, in Brassica oleracea, foliar, 96 h, after 4 d
[7] = Phaedon cochleariae, in Brassica oleracea, foliar, 144 h, read-out: Mortality in % after 6d, dose 200 ppm, after 6 d

5-fluoro-1,3-dimethyl-N-[2-(1,3-dimethyl)-but-2-ol-yl]-1H-pyrazole-4-carboxamide [Compound A]
Mortality in % after 4d ([1]; dose 200 ppm, after 4 d): 0%

CN/C(=N\[N+](=O)[O-])NCc1cnc(Cl)s1 [Clothianidin, clothianidin]
mortality at 4 ppm [1, 2]: 60% | mortality at 0.8 ppm ([1]; Phaedon cochleariae, in Brassica oleracea, foliar, 144 h, read-out: Mortality in % after 6d, dose 0.8 ppm, after 6 d): 0% | mortality at 4 ppm [1, 3]: 20% | Mortality in % after 6d ([1]; dose 4 ppm, after 6 d): 40% | mortality at 0.16 ppm (Myzus persicae; [4]): 10% | mortality at 0.8 ppm (Myzus persicae; [4]): 70% | mortality at 0.16 ppm (Myzus persicae; [5]): 30% | mortality at 0.8 ppm (Myzus persicae; [5]): 55%

O=C(NCCc1ncc(C(F)(F)F)cc1Cl)c1ccccc1C(F)(F)F [Compound 1, N-{2-[3-chloro-5-(trifluoromethyl)-2-pyridinyl]ethyl}-2-trifluoromethylbenzamide]
Efficacy in % (Gibberella zeae): 41% | Efficacy in % (Phytophthora cryptogea): 13% | mortality at 1 ppm [1, 6]: 0% | mortality at 0.2 ppm ([1]; Phaedon cochleariae, in Brassica oleracea, foliar, 144 h, read-out: Mortality in % after 6d, dose 0.2 ppm, after 6 d): 0% | mortality at 200 ppm [1, 7]: 0% | Mortality in % after 4d ([1]; dose 200 ppm, after 4 d): 5% and 15% | mortality at 200 ppm (Aphis gossypii; dose 200 ppm): 10% | mortality at 20 ppm (Myzus persicae; 24 h, dose 20 ppm, after 1 d): 0% | mortality at 200 ppm (Myzus persicae; [4]): 0% | mortality at 200 ppm (Myzus persicae; [5]): 0%

Nc1nc(N)nc(NC2CC2)n1 [Cyromazine, cyromazine]
mortality at 20 ppm ([1]; Phaedon cochleariae, in Brassica oleracea, foliar, 144 h, read-out: Mortality in % after 6d, dose 20 ppm, after 6 d): 5%

CCOP(=O)(NC(C)C)Oc1ccc(SC)c(C)c1 (stereo not shown) [Fenamifos, fenamifos]
Mortality in % after 6d ([1]; dose 20 ppm, after 6 d): 75%

N#Cc1nn(-c2c(Cl)cc(C(F)(F)F)cc2Cl)c(N)c1[S+]([O-])C(F)(F)F (stereo not shown) [Fipronil, fipronil]
mortality at 100 ppm (Aphis gossypii; dose 100 ppm): 40%

N#Cc1c[nH]cc1-c1cccc2c1OC(F)(F)O2 [Fludioxonil, fludioxonil]
mortality at 200 ppm [1, 7]: 5% | mortality at 200 ppm (Myzus persicae; [4]): 0%

O=[N+]([O-])NC1=NCCN1Cc1ccc(Cl)nc1 [Imidacloprid, imidacloprid]
Efficacy in % (Gibberella zeae): 22% | mortality at 4 ppm [1, 2]: 35% | mortality at 0.16 ppm (Myzus persicae; [4]): 30%

CC(C)C1CCC(Cc2ccc(Cl)cc2)C1(O)Cn1cncn1 (stereo not shown) [Ipconazole, ipconazole]
mortality at 200 ppm (Myzus persicae; [4]): 0%

OC(Cc1ccccc1Cl)(Cn1nc[nH]c1=S)C1(Cl)CC1 (stereo not shown) [Prothioconazole, prothioconazole]
Efficacy in % (Pyricularia oryzae): 12% | mortality at 1 ppm [1, 6]: 0% | mortality at 200 ppm ([1]; Phaedon cochleariae, in Brassica oleracea, foliar, 96 h, read-out: Mortality in % after 4d, dose 200 ppm, after 4 d): 0% | mortality at 200 ppm (Myzus persicae; [5]): 0%

CC1=NNC(=O)N(/N=C/c2cccnc2)C1 [Pymetrozine, pymetrozine]
mortality at 0.8 ppm (Myzus persicae; [4]): 30%

CC(C)(C)C(O)(CCc1ccc(Cl)cc1)Cn1cncn1 (stereo not shown) [Tebuconazole, tebuconazole]
mortality at 200 ppm (Myzus persicae; [5]): 0%

N#C/N=C1\SCCN1Cc1ccc(Cl)nc1 [Thiacloprid, thiacloprid]
mortality at 4 ppm [1, 3]: 25%

CC(C)(C)C(O)C(Oc1ccc(Cl)cc1)n1cncn1 (stereo not shown) [Triadimenol, triadimenol]
mortality at 0.4 ppm ([1]; Phaedon cochleariae, in Brassica oleracea, foliar, 144 h, read-out: Mortality in % after 6d, dose 0.4 ppm, after 6 d): 0% | mortality at 200 ppm (Myzus persicae; [4]): 10%

CON=C(C(=O)OC)c1ccccc1CON=C(C)c1cccc(C(F)(F)F)c1 [Trifloxystrobin, trifloxystrobin]
mortality at 200 ppm (Myzus persicae; [5]): 20%

spinosad
Efficacy in % (Phytophthora cryptogea): 5% | Mortality in % after 4d ([1]; dose 0.8 ppm, after 4 d): 50%
